# Experimental data published in patent publication US10392348B2, “2-oxo-3,4-dihydroquinoline compounds as plant growth regulators” (Syngenta Participations AG, priority 2015, dated 2019).
# Read-outs that look alike come from different tables or passages of the source.
# Experiments:
# [1] = test system: soybean plants (variety S20-G7); assay: Reduced plant water use in soybean (foliar spray, repeated weighing of pots); type: in vivo; conditions: vs negative control; for change in vivo at 500 µM / change in vivo at 31.25 µM / change in vivo at 125 µM: Glycine max, foliar; for % WU 0 DAA AM*: 0 DAA a.m.
# How it was run: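 Daytime water use was tracked by weighing pots of 12-day-old soybean after foliar spray of compound formulated as EC plus EXTRAVON 1 g/20 L. Cumulative total (0-2.5 DAA) sums a.m. and p.m. readings; values baseline-adjusted by covariance analysis against formulation-only negative control.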
# [2] = 0 h, Table B1, sprayed at 500 μM, 0 DAA a.m. (10:30-12:50), read-out: % WU 0 DAA AM
# [3] = 24 h, Table B1, sprayed at 500 μM, 1 DAA a.m. (7:30-12:50), read-out: % WU 1DAA AM
# [4] = 24 h, Table B1, sprayed at 500 μM, 1 DAA p.m. (14:00-19:50), read-out: % WU 1DAA PM
# [5] = 24 h, Table B2, rate 31.25 uM, 1 DAA a.m., read-out: % WU 1DAA AM
# [6] = 24 h, Table B2, rate 31.25 uM, 1 DAA p.m., read-out: % WU 1DAA PM
# [7] = 24 h, Table B2, rate 125 uM, 1 DAA a.m., read-out: % WU 1DAA AM
# [8] = 24 h, Table B2, rate 125 uM, 1 DAA p.m., read-out: % WU 1DAA PM
# [9] = 24 h, Table B2, rate 500 uM, 1 DAA a.m., read-out: % WU 1DAA AM
# [10] = 24 h, Table B2, rate 500 uM, 1 DAA p.m., read-out: % WU 1DAA PM
# [11] = 48 h, Table B1, sprayed at 500 μM, 2 DAA a.m. (07:30-12:50), read-out: % WU 2 DAA AM
# [12] = 48 h, Table B1, sprayed at 500 μM, 2 DAA p.m. (14:00-19:50), read-out: % WU 2 DAA PM
# [13] = 48 h, Table B2, rate 31.25 uM, 2 DAA a.m., read-out: % WU 2 DAA AM
# [14] = 48 h, Table B2, rate 31.25 uM, 2 DAA p.m., read-out: % WU 2 DAA PM
# [15] = 48 h, Table B2, rate 125 uM, 2 DAA a.m., read-out: % WU 2 DAA AM
# [16] = 48 h, Table B2, rate 125 uM, 2 DAA p.m., read-out: % WU 2 DAA PM
# [17] = 48 h, Table B2, rate 500 uM, 2 DAA a.m., read-out: % WU 2 DAA AM
# [18] = 48 h, Table B2, rate 500 uM, 2 DAA p.m., read-out: % WU 2 DAA PM
# [19] = 60 h, Table B1, sprayed at 500 μM, cumulative total WU (0-2.5 DAA), read-out: % WU Total 0 to 2.5 DAA
# [20] = 60 h, Table B2, rate 31.25 uM, cumulative total WU (0-2.5 DAA), read-out: % WU Total 0 to 2.5 DAA
# [21] = 60 h, Table B2, rate 125 uM, cumulative total WU (0-2.5 DAA), read-out: % WU Total 0 to 2.5 DAA
# [22] = 60 h, Table B2, rate 500 uM, cumulative total WU (0-2.5 DAA), read-out: % WU Total 0 to 2.5 DAA
Compound,melting point [°C],"change in vivo at 500 µM [1, 2] [%]","change in vivo at 500 µM [1, 3] [%]","change in vivo at 500 µM [1, 4] [%]","change in vivo at 500 µM [1, 11] [%]","change in vivo at 500 µM [1, 12] [%]","change in vivo at 500 µM [1, 19] [%]",other results
"CCN1C(=O)CCc2cc(CNS(=O)(=O)c3ccccc3)ccc21 [Compound 2.001, N-[(1-ethyl-2-oxo-3,4-dihydroquinolin-6-yl)methyl]benzenesulfonamide]",114 to 124,-35.3,-29.1,-28.1,-19.6,-14.3,-25.7,"change in vivo at 31.25 µM [1, 5]: -1.8%; change in vivo at 31.25 µM [1, 6]: -0.9%; change in vivo at 125 µM [1, 7]: -10.1%; change in vivo at 125 µM [1, 8]: -10.9%; change in vivo at 500 µM [1, 9]: -36.3%; change in vivo at 500 µM [1, 10]: -33.2%; change in vivo at 31.25 µM [1, 13]: -2.7%; change in vivo at 31.25 µM [1, 14]: -1.5%; change in vivo at 125 µM [1, 15]: -11.7%; change in vivo at 125 µM [1, 16]: -10.1%; change in vivo at 500 µM [1, 17]: -24.2%; change in vivo at 500 µM [1, 18]: -19.5%; change in vivo at 31.25 µM [1, 20]: -1.7%; change in vivo at 125 µM [1, 21]: -11.1%; change in vivo at 500 µM [1, 22]: -31.8%; % WU 0 DAA AM* ([1]; Table B2, rate 31.25 uM): −0.7%; % WU 0 DAA AM* ([1]; Table B2, rate 125 uM): −10.4%; % WU 0 DAA AM* ([1]; Table B2, rate 500 uM): −41.2%"
"CCN1C(=O)CCc2cc(CNS(=O)(=O)c3ccccc3F)ccc21 [Compound 2.007, N-[(1-ethyl-2-oxo-3,4-dihydroquinolin-6-yl)methyl]-2-fluoro-benzenesulfonamide]",155 to 163,-14.1,-7.3,-6.6,-8.8,-5.7,-8.1,
"CCN1C(=O)CCc2cc(CNS(=O)(=O)c3ccc(F)cc3)ccc21 [Compound 2.009, N-[(1-ethyl-2-oxo-3,4-dihydroquinolin-6-yl)methyl]-4-fluoro-benzenesulfonamide]",190 to 191,-5.3,-2,-1.2,-3.1,-1,-2.3,
"CCN1C(=O)CCc2cc(CNS(=O)(=O)c3ccc(OC)cc3)ccc21 [Compound 2.010, N-[(1-ethyl-2-oxo-3,4-dihydroquinolin-6-yl)methyl]-4-methoxy-benzenesulfonamide]",147 to 150,-15.2,-2.6,-1.7,-3.6,-2.4,-4.3,
"CCN1C(=O)CCc2cc(CNS(=O)(=O)c3ccc(C)cc3C)ccc21 [Compound 2.014, N-[(1-ethyl-2-oxo-3,4-dihydroquinolin-6-yl)methyl]-2,4-dimethyl-benzenesulfonamide]",199 to 200,-2.8,-0.2,-0.9,-0.9,-1.7,-1.1,
"CCCN1C(=O)CCc2cc(CNS(=O)(=O)c3ccccc3)ccc21 [Compound 3.001, N-[(2-oxo-1-propyl-3,4-dihydroquinolin-6-yl)methyl]benzenesulfonamide]",159 to 161,-15,-9.9,-6.7,-7.2,-5.8,-8.8,"change in vivo at 31.25 µM [1, 5]: -6.9%; change in vivo at 31.25 µM [1, 6]: -5.4%; change in vivo at 125 µM [1, 7]: -15.7%; change in vivo at 125 µM [1, 8]: -15.3%; change in vivo at 500 µM [1, 9]: -36.4%; change in vivo at 500 µM [1, 10]: -33.3%; change in vivo at 31.25 µM [1, 13]: -5.8%; change in vivo at 31.25 µM [1, 14]: -2.2%; change in vivo at 125 µM [1, 15]: -9.3%; change in vivo at 125 µM [1, 16]: -6.3%; change in vivo at 500 µM [1, 17]: -21.4%; change in vivo at 500 µM [1, 18]: -15.1%; change in vivo at 31.25 µM [1, 20]: -5.7%; change in vivo at 125 µM [1, 21]: -14.8%; change in vivo at 500 µM [1, 22]: -31.1%; % WU 0 DAA AM* ([1]; Table B2, rate 31.25 uM): −4.4%; % WU 0 DAA AM* ([1]; Table B2, rate 125 uM): −23.7%; % WU 0 DAA AM* ([1]; Table B2, rate 500 uM): −44.6%"
"CCCN1C(=O)CCc2cc(CNS(=O)(=O)c3ccccc3C)ccc21 [Compound 3.011, 2-methyl-N-[(2-oxo-1-propyl-3,4-dihydroquinolin-6-yl)methyl]benzenesulfonamide]",163 to 165,-3.6,-3.6,-2.3,-3.6,-2.4,-3,
"CCCN1C(=O)CCc2cc(CNS(=O)(=O)c3ccc(C)cc3)ccc21 [Compound 3.012, 4-methyl-N-[(2-oxo-1-propyl-3,4-dihydroquinolin-6-yl)methyl]benzenesulfonamide]",153 to 154,-43.9,-1.8,2.1,1.7,3,-5.8,
"CCCN1C(=O)CCc2cc(CNS(=O)(=O)c3ccc(OC(C)C)cc3)ccc21 [Compound 3.016, 4-isopropoxy-N-[(2-oxo-1-propyl-3,4-dihydroquinolin-6-yl)methyl]benzenesulfonamide]",138 to 139,-3.6,-1.3,-0.5,-1.1,0,-1.2,
"CCCN1C(=O)CCc2cc(CNS(=O)(=O)c3cccs3)ccc21 [Compound 3.072, N-[(2-oxo-1-propyl-3,4-dihydroquinolin-6-yl)methyl]thiophene-2-sulfonamide]",151 to 153,-39.4,-45.9,-40.9,-39.8,-32.2,-40.1,
"CCCN1C(=O)CCc2cc(CNS(=O)(=O)c3ccc(Cl)s3)ccc21 [Compound 3.073, 5-chloro-N-[(2-oxo-1-propyl-3,4-dihydroquinolin-6-yl)methyl]thiophene-2-sulfonamide]",144 to 147,-44.6,-54.9,-52.1,-53.3,-48.7,-51,
"CCCN1C(=O)CCc2cc(CNS(=O)(=O)c3cccc4ccccc34)ccc21 [Compound 3.074, N-[(2-oxo-1-propyl-3,4-dihydroquinolin-6-yl)methyl]naphthalene-1-sulfonamide]",176 to 179,-8.6,0,1,-1.5,0,-1.4,
"CCCn1c(=O)ccc2cc(CNS(=O)(=O)c3ccccc3)ccc21 [Compound 7.001, N-[(2-oxo-1-propyl-6-quinolyl)methyl]benzenesulfonamide]",204 to 206,-17.1,-9.1,-6.9,-6.9,-2.5,-8.8,
